# In patent US9546157B2, “Asymmetric piperidinyl-substituted ureas as medicines” (Helsinn Healthcare SA, priority 2014, dated 2017):
# Legend:
# GHSR1a [1] = biological target: T1, GHSR1a (Homo sapiens, UniProt Q92847); assay: Calcium FLIPR assay, GHSR-1a agonism; format: cell-based; parameters: Emax: unit not given here; details: HEK293/GHSR1a cells
# T1 construct: expressed in transfected cells; host or cells: HEK293
# Procedure, shortened: (§1)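 Calcium flux measured by FLIPR in GHSR1a-expressing HEK293 cells after 30-60 min dye preloading. Compound was added at t=20 sec, alone for agonism or with ghrelin (10 nM) for antagonism, and fluorescence recorded for 2 minutes. EC50 and IC50 were estimated from dose-response data.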
# GHSR1a [2] = biological target: T1, GHSR1a; assay: Calcium FLIPR assay, GHSR-1a antagonism (reduction of ghrelin response); format: cell-based; details: HEK293/GHSR1a cells, ghrelin 10 nM
# Procedure, shortened: as §1
# [3] = Metabolic Stability (H = Human); format: in vitro ADME
# C57BL/6J mice = assay: Food intake test in mouse (GHSR1a antagonists); format: in vivo
# Description: Male C57BL/6J mice, 18-22 g body weight, were fasted overnight (16 h before compound administration) and placed in a regular light dark cycle (6:00-18:00 light/18:00-6:00 dark). After 1 wk acclimation, animals were sorted into two groups (n=6 each, 2 per cage) based on body weight. Animals in group one were be treated with vehicle and animals in group 2 were treated with the test agent (n=6 for each group). The cumulative food intake was evaluated at 1, 2, 4, 8 and 24 hrs after drug or vehicle treatment. Food intake was measured by subtracting uneaten food from the initial premeasured food.
# [4] = Metabolic Stability (M = Mouse); format: in vitro ADME
# [5] = Mus musculus, ip, 1 h, i.p. 10 mg/kg
# [6] = Mus musculus, ip, 2 h, i.p. 10 mg/kg
# T1 sequence (Q92847 whole entry): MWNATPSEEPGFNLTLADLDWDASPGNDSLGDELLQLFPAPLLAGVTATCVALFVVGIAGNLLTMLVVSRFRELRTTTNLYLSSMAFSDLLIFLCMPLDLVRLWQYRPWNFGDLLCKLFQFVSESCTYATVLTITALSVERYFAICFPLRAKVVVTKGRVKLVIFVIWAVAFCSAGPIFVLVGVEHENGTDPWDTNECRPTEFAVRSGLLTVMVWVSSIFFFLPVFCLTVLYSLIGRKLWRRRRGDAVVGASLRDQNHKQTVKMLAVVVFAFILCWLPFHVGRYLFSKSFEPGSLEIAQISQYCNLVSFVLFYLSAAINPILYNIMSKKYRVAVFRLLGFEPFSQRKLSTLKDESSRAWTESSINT
SMILES,EC50 (GHSR1a [1]) [nM],IC50 (GHSR1a [2]) [nM],Metabolic Stability H [3],inhibition in vivo at 10 mg/kg (C57BL/6J mice; [5]) [%],Metabolic Stability M [4],"Mouse Food Intake, result in words (C57BL/6J mice; PO 30 mg/kg)","Mouse Food Intake, result in words (C57BL/6J mice; i.p. 10 mg/kg)","inhibition in vivo at 0.1 mg/kg (C57BL/6J mice; Mus musculus, ip, 1 h, i.p. 0.1 mpk) [%]","inhibition in vivo at 1 mg/kg (C57BL/6J mice; Mus musculus, ip, 1 h, i.p. 1 mpk) [%]","Mouse Food Intake, result in words (C57BL/6J mice; SC, dose not given)","Mouse Food Intake inhibition, activity up to (C57BL/6J mice; i.p. 1 mpk) [h]",Emax (GHSR1a [1]),"Mouse Food Intake, result in words (C57BL/6J mice; IP + ANAM 30 mpk PO, at 1 h)","Mouse Food Intake, result in words (C57BL/6J mice; PO, dose not given)",inhibition in vivo at 10 mg/kg (C57BL/6J mice; [6]) [%],"Mouse Food Intake, result in words (C57BL/6J mice; i.p., dose not given)","inhibition in vivo at 10 mg/kg (C57BL/6J mice; Mus musculus, ip, 4 h, i.p. 10 mg/kg) [%]"
"CC(NC(=O)N(Cc1ccc(CO)cc1)C1CCN(C)CC1)c1ccc(-c2cn[nH]c2)c(Cl)c1Cl (stereo not drawn) [Compound H0553, 3-(1-(2,3-dichloro-4-(1H-pyrazol-4-yl)phenyl)ethyl)-1-(4-(hydroxymethyl)benzyl)-1-(1-methylpiperidin-4-yl)urea]",> 30000,7,Medium,57,Poor,–,–,–,–,–,–,–,–,–,–,–,–
"CC(NC(=O)N(C)C1CCN(C)CC1)c1ccc(Br)c2ccccc12 (stereo not drawn) [Compound H0573, 3-(1-(4-bromonaphthalen-1-yl)ethyl)-1-methyl-1-(1-methylpiperidin-4-yl)urea]",> 30000,36,High,–,Medium,PO: NSE (30 mg/kg),–,–,–,–,–,–,–,–,–,–,–
"Cc1noc(-c2ccc(C(C)NC(=O)N(C)C3CCN(C)CC3)c(Cl)c2Cl)n1 (stereo not drawn) [Compound H0596, 3-(1-(2,3-dichloro-4-(3-methyl-1,2,4-oxadiazol-5-yl)phenyl)ethyl)-1-methyl-1-(1-methylpiperidin-4-yl)urea]",3,9,High H High M,–,High H High M,–,NSE (10 mg/kg),–,–,–,–,–,–,–,–,–,–
"C#Cc1ccc(C(C)NC(=O)N(C)C2CCN(C)CC2)c(Cl)c1Cl (stereo not drawn) [Compound H0603, 3-(1-(2,3-dichloro-4-ethynylphenyl)ethyl)-1-methyl-1-(1-methylpiperidin-4-yl)urea]",> 30000,2,High H High M,34,High H High M,–,–,71,65,SC NSE,≤ 24,–,–,–,–,–,–
"COc1cncc(-c2ccc(C(C)NC(=O)N(C)C3CCN(C)CC3)c(Cl)c2Cl)c1 (stereo not drawn) [Compound H0607, 3-(1-(2,3-dichloro-4-(5-methoxypyridin-3-yl)phenyl)ethyl)-1-methyl-1-(1-methylpiperidin-4-yl)urea]",31,6,Medium H Medium M,–,Medium H Medium M,–,NSE (10 mg/kg),–,–,–,–,3000,–,–,–,–,–
"CC(NC(=O)N(C)C1CCN(C)CC1)c1ccc(-c2cncc(C#N)c2)c(Cl)c1Cl (stereo not drawn) [Compound H0613, 3-(1-(2,3-dichloro-4-(5-cyanopyridin-3-yl)phenyl)ethyl)-1-methyl-1-(1-methylpiperidin-4-yl)urea]",> 30000,20,High H High M,–,High H High M,–,NSE,–,–,–,–,–,inhibition,inhibition at 1 h,–,–,–
"CC(NC(=O)N(C)C1CCN(C)CC1)c1ccc(-c2cncc(F)c2)c(Cl)c1Cl (stereo not drawn) [Compound H0614, 3-(1-(2,3-dichloro-4-(5-fluoropyridin-3-yl)phenyl)ethyl)-1-methyl-1-(1-methylpiperidin-4-yl)urea]",> 30000,12,High H High M,–,High H High M,–,–,–,–,–,–,–,–,"No IP done, PO: NSE",–,–,–
"CC(NC(=O)N(C)C1CCN(C)CC1)c1ccc(-c2ncccn2)c(Cl)c1Cl (stereo not drawn) [Compound H0619, 3-(1-(2,3-dichloro-4-(pyrimidin-2-yl)phenyl)ethyl)-1-methyl-1-(1-methylpiperidin-4-yl)urea]",39,13,High H High M,34,High H High M,–,–,–,–,–,–,–,–,–,34,–,–
"CC(NC(=O)N(O)C1CCN(C)CC1)c1ccc(C(F)F)c(Cl)c1Cl (stereo not drawn) [Compound H0621, 3-(1-(2,3-dichloro-4-(difluoromethyl)phenyl)ethyl)-1-hydroxy-1-(1-methylpiperidin-4-yl)urea]",2,> 30000,High H High M,–,High H High M,–,–,–,–,–,–,3896,–,–,–,No Effect,–
"Cc1cncc(-c2ccc(C(C)NC(=O)N(C)C3CCN(C)CC3)c(Cl)c2Cl)c1 (stereo not drawn) [Compound H0639, 3-(1-(2,3-dichloro-4-(5-methylpyridin-3-yl)phenyl)ethyl)-1-methyl-1-(1-methylpiperidin-4-yl)urea]",> 30000,48,Medium H Medium M,–,Medium H Medium M,–,NSE (10 mg/kg),–,–,–,–,–,–,–,–,–,–
"COc1ncc(-c2ccc(C(C)NC(=O)N(C)C3CCN(C)CC3)c(Cl)c2Cl)cn1 (stereo not drawn) [Compound H0649, 3-(1-(2,3-dichloro-4-(2-methoxypyrimidin-5-yl)phenyl)ethyl)-1-methyl-1-(1-methylpiperidin-4-yl)urea]",64,18,High H High M,48,High H High M,–,–,–,–,–,–,1400,–,–,48,–,–
"CC(=O)c1ccc(-c2ccc(C(C)NC(=O)N(C)C3CCN(C)CC3)c(Cl)c2Cl)s1 (stereo not drawn) [Compound H0655, 3-(1-(4-(5-acetylthiophen-2-yl)-2,3-dichlorophenyl)ethyl)-1-methyl-1-(1-methylpiperidin-4-yl)urea]",> 30000,12,Medium H Medium M,70,Medium H Medium M,–,–,–,–,–,–,–,–,–,–,–,–
"CC(NC(=O)N(O)C1CCN(C)CC1)c1ccc(-c2cncc(C#N)c2)c(Cl)c1Cl (stereo not drawn) [Compound H0667, 3-(1-(2,3-dichloro-4-(5-cyanopyridin-3-yl)phenyl)ethyl)-1-hydroxy-1-(1-methylpiperidin-4-yl)urea]",3,< 1,High H High M,76,High H High M,–,–,–,–,–,–,4887,–,–,–,–,–
"CN1CCC(N(C)C(=O)NC(c2ccc(-c3cncnc3)c(Cl)c2Cl)C(F)(F)F)CC1 (stereo not drawn) [Compound H0686, 3-(1-(2,3-dichloro-4-(pyrimidin-5-yl)phenyl)-2,2,2-trifluoroethyl)-1-methyl-1-(1-methylpiperidin-4-yl)urea]",> 30000,14,Medium,–,High,–,–,–,–,–,–,–,–,NSE,61,–,61
"CC(NC(=O)N(C)C1CCN(C)CC1)c1ccc(-c2ccc(C(N)=O)s2)c(Cl)c1Cl (stereo not drawn) [Compound H0691, 5-(2,3-dichloro-4-(1-(3-methyl-3-(1-methylpiperidin-4-yl)ureido)ethyl)phenyl)thiophene-2-carboxamide]",> 30000,5,High H High M,–,High H High M,–,–,–,–,–,–,–,–,not active,62,–,–
